Data: PubChem BioAssay (NCI)
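Each compound was tested at five concentrations against cells in 96-well plates for 48 hours. TGI is the concentration that stops growth completely.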

Experiments:
Assay in all cases: NCI tumour cell line growth inhibition, 48 h
SNB-75 CNS = system: SNB-75 CNS
DLD-1 colon = system: DLD-1 colon
SF-268 CNS = system: SF-268 CNS
UACC-257 melanoma = system: UACC-257 melanoma
OVCAR-3 ovarian = system: OVCAR-3 ovarian
MOLT-4 leukemia = system: MOLT-4 leukemia
OVCAR-5 ovarian = system: OVCAR-5 ovarian
A498 renal = system: A498 renal
OVCAR-4 ovarian = system: OVCAR-4 ovarian
DMS 114 small cell lung = system: DMS 114 small cell lung
M19-MEL melanoma = system: M19-MEL melanoma
A549 NSCLC = system: A549 NSCLC
SF-295 CNS = system: SF-295 CNS
OVCAR-8 ovarian = system: OVCAR-8 ovarian
HCT-116 colon = system: HCT-116 colon
MALME-3M melanoma = system: MALME-3M melanoma
U251 CNS = system: U251 CNS
SF-539 CNS = system: SF-539 CNS
LOX IMVI melanoma = system: LOX IMVI melanoma
M14 melanoma = system: M14 melanoma
EKVX NSCLC = system: EKVX NSCLC
NCI-H226 lung = system: NCI-H226 lung
K-562 leukemia = system: K-562 leukemia
KM20L2 colon = system: KM20L2 colon
RXF 393 renal = system: RXF 393 renal
CCRF-CEM leukemia = system: CCRF-CEM leukemia
UACC-62 melanoma = system: UACC-62 melanoma
ACHN renal = system: ACHN renal
LXFL 529 NSCLC = system: LXFL 529 NSCLC
RPMI-8226 leukemia = system: RPMI-8226 leukemia
SW-620 colon = system: SW-620 colon
SN12C renal = system: SN12C renal
HL-60(TB) leukemia = system: HL-60(TB) leukemia
IGROV1 ovarian = system: IGROV1 ovarian
HOP-62 NSCLC = system: HOP-62 NSCLC
SK-OV-3 ovarian = system: SK-OV-3 ovarian
SK-MEL-2 melanoma = system: SK-MEL-2 melanoma
NCI-H23 lung = system: NCI-H23 lung
DMS 273 small cell lung = system: DMS 273 small cell lung
UO-31 renal = system: UO-31 renal
HT29 colon = system: HT29 colon
TK-10 renal = system: TK-10 renal
SK-MEL-28 melanoma = system: SK-MEL-28 melanoma
HOP-92 NSCLC = system: HOP-92 NSCLC
786-0 renal = system: 786-0 renal
HOP-18 NSCLC = system: HOP-18 NSCLC
COLO 205 colon = system: COLO 205 colon
SNB-78 CNS = system: SNB-78 CNS
NCI-H460 lung = system: NCI-H460 lung
HCT-15 colon = system: HCT-15 colon
NCI-H522 lung = system: NCI-H522 lung
SNB-19 CNS = system: SNB-19 CNS
NCI/ADR-RES ovarian = system: NCI/ADR-RES ovarian
PC-3 prostate = system: PC-3 prostate
MDA-MB-435 = system: MDA-MB-435
BT-549 breast = system: BT-549 breast
T-47D breast = system: T-47D breast
SK-MEL-5 melanoma = system: SK-MEL-5 melanoma
HCC-2998 colon = system: HCC-2998 colon
MDA-MB-231 breast = system: MDA-MB-231 breast
MDA-N = system: MDA-N
DU-145 prostate = system: DU-145 prostate
SR leukemia = system: SR leukemia
HS 578T breast = system: HS 578T breast
CAKI-1 renal = system: CAKI-1 renal
MCF7 breast = system: MCF7 breast

Measured: TGI

CCC1(CC)C(=O)NC(=O)NC1=S
not listed: NCI/ADR-RES ovarian | PC-3 prostate | MDA-MB-435 | BT-549 breast | T-47D breast | SK-MEL-5 melanoma | HCC-2998 colon | MDA-MB-231 breast | MDA-N | DU-145 prostate | SR leukemia | HS 578T breast | CAKI-1 renal | MCF7 breast
> 100 µM: all other assays above

CC(=O)c1cc2c(Br)cccc2oc1=O
not listed: DLD-1 colon | DMS 114 small cell lung | M19-MEL melanoma | KM20L2 colon | LXFL 529 NSCLC | SK-OV-3 ovarian | DMS 273 small cell lung | UO-31 renal | HOP-18 NSCLC | SNB-78 CNS
> 100 µM: all other assays above
